Test results from patent US20240352502A1, “ANALYTICAL METHODS FOR BACTERIAL IDENTIFICATION AND ANTIBIOTIC SUSCEPTIBILITY TESTING IN BIOLOGICAL SAMPLES” (UNIVERSITY OF SCIENCE AND TECHNOLOGY OF CHINA, priority 2021, published 2024).

Tested on: E. coli
Experiment: Antibiotic susceptibility test of a single living bacterium in whole blood by single-bacterium mass spectrometry (metabolite signal change)
Format: cell-based, Escherichia coli
Conditions: E. coli from whole blood supernatant; 10 μL of 8 mg/mL kanamycin or 10 μL of 2 mg/mL norfloxacin added into 500 μL; 30 min at 37° C.; FIG. 12
Protocol: 1 mL of whole blood was taken and placed in a centrifuge tube, centrifuged at 3000 rpm for 8 min; the blood cell pellet was discarded; 10 μL of 8 mg/mL kanamycin and 10 μL of 2 mg/mL norfloxacin were respectively added into 500 μL of the supernatant containing the bacterium, and incubated with shaking at 37° C. After 30 min of incubation, the supernatant was centrifuged at 10,000 rpm for 8 min; the supernatant was discarded, and the pellet was resuspended in 100 μL of deionized water; the solution containing the bacterium not having been incubated with the antibiotic was used as a reference group, and the same operations as above were performed. […]
10 μL of 100 μM Acridine Orange as a staining agent was added into the solution containing the bacterium obtained in step (1) and step (2) to perform staining for 15 min. […] The resuspended solution containing the bacterium was dropped onto a polylysine slide and leave for 30 minutes to allow the bacterium to be adsorbed and fixed on the polylysine slide, and then the polylysine slide was rinsed with deionized water and dried at room temperature; the location of bacteria was observed under a fluorescence microscope. […]

## CCn1cc(C(=O)O)c(=O)c2cc(F)c(N3CCNCC3)cc21 [norfloxacin]
  change of alanyl-threonine (m/z 191) signal in a single bacterium after incubation with antibiotic: significantly reduced
